# Literature values in patent US5744472A, “1-(N'-(arylalkylaminoalkyl)) aminoisoindoles; a new class of dopamine receptor subtype specific ligands” (Neurogen Corporation, priority 1995, dated 1998).
# Where two headings read alike, the source gives them in different places.
# Columns and labels:
# [1] = system: extrapyramidal side effects (EPS)
# [2] = system: D2 receptors; conditions: background statement
# [3] = system: D1 dopamine receptor; conditions: background statement
smiles,measurement,setting,value
CN1CCN(C2=Nc3cc(Cl)ccc3Nc3ccccc32)CC1 [clozapine],incidence of extrapyramidal side effects,"[1]; compared with classical neuroleptics, background statement",lesser incidence of extrapyramidal side effects (EPS) than classical neuroleptics
O=C(CCCN1CCC(O)(c2ccc(Cl)cc2)CC1)c1ccc(F)cc1 [haloperidol],binding affinity at D2 receptors,[2],subnanomolar range
same,binding at the D1 dopamine receptor,[3],binds relatively weakly
CCN1CCCC1CNC(=O)c1cc(S(N)(=O)=O)ccc1OC (stereo not shown) [sulpiride],incidence of extrapyramidal side effects,[1]; in vivo,lesser incidence of extrapyramidal side effects (EPS) than classical neuroleptics
